Assay results from paper PMC8274934, “FisB relies on homo-oligomerization and lipid binding to catalyze membrane fission in bacteria” (PLoS Biology, 2021).
Substitutions are numbered along the chain they refer to.

Tests used:
iFluor555-FisB ECD [1] = target: T1, iFluor555-FisB ECD (Bacillus subtilis, UniProt O32131, G123C); assay: liposome co-flotation, fluorescence of gel band; assay type: binding; details: apparent, in total lipid concentration, 55% PC, 100 nM labelled protein, room temperature, 1 h
T1 construct: iFluor555-maleimide on G123C; forms soluble oligomers
T1 sequence (O32131 39-254 G123C limits assumed): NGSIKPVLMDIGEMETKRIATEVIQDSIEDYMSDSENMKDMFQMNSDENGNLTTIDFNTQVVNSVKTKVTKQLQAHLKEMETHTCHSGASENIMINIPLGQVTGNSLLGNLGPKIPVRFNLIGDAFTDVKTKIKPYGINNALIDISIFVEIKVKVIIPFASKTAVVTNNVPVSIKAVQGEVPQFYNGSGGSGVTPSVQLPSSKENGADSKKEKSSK

iFluor555-FisB ECD [2] = target: T2, iFluor555-FisB ECD (Bacillus subtilis, UniProt O32131, G123C/K168D/K170E); assay: liposome co-flotation, fluorescence of gel band; assay type: binding; details: apparent; in total lipid concentration; liposomes 45 mole % CL, 55% PC; 100 nM labelled protein; room temperature, 1 h; read-out: KdKK
T2 construct: iFluor555-maleimide on G123C; forms soluble oligomers
T2 sequence (O32131 39-254 G123C/K168D/K170E limits assumed): T1 sequence (O32131 39-254 G123C limits assumed) with K130D, K132E

[3] = target: His6-FisB ECD (recombinant soluble extracytoplasmic domain of fission protein B, wild type) (B. subtilis); assay: negative-stain electron microscopy; high molecular weight SEC fractions on carbon-coated grids, 2% uranyl acetate

Work on phosphatidylglycerol [PG] yielded a Kd (iFluor555-FisB ECD [1]; liposomes 45 mole % PG) of 3.6 µM.

Work on cardiolipin [CL] yielded a Kd (iFluor555-FisB ECD [1]; liposomes 45 mole % CL) of 1 µM and a Kd (iFluor555-FisB ECD [2]) of 9.1 µM.

With “His6-FisB ECD (recombinant soluble extracytoplasmic domain of fission protein B, wild type) (domain or fragment)” the stoichiometry N [3] was 40 copies.
